Measurements published in patent US10487054B2, “Therapeutic compounds” (REGENTS OF THE UNIVERSITY OF MINNESOTA, priority 2017, dated 2019).

How the values were obtained:
SKH-1 hairless mice = assay: SUV-induced mouse skin tumorigenesis, early-stage prevention model; type: in vivo
Description: Tumor volume was calculated according to the following formula: tumor volume (mm^3)=length×width×height×0.52. […] For 4B and 4C, data are represented as mean values±S.D. and significant differences were determined by one-way ANOVA. The asterisk (*) indicates a significant decrease compared to the SUV only or the vehicle and SUV-treated groups (***, p<0.001). […] Dorsal trunk skin samples were harvested and stained with H&E (left panels) or with an antibody to detect PCNA (right panels). […] Expression of PCNA was quantified using Image-Pro Plus software and stained cells were counted from 5 separate areas on each slide (lower panel). An average of 3 samples was calculated per group. Data are expressed as mean percent of control±S.D. and the asterisks indicate a significant difference in PCNA expression (***, p<0.001). […] The expression levels of phosphorylated and total proteins were analyzed by Western blot.
Mice were weighed once a week until the end of the study at week 28. […] SKH-1 hairless mice were treated as described in Materials and Methods. The mice in the control groups (n=9) received no vehicle/no SUV (n=3), vehicle/no SUV (n=3), or 1 mg […]/no SUV (n=3), respectively. The mice in the SUV treated group received SUV only (n=12) and the mice in the vehicle/SUV-treated group (n=12) were treated with oil-in-water emulsion cream before SUV exposure. The mice in the 0.1 mg/SUV or 1 mg/SUV groups (n=12 each) received treatment with compound 1 (0.1 or 1 mg, respectively) before SUV exposure. The frequency of irradiation was set at 3 times a week for 15 weeks. The respective doses of oil-in-water emulsion cream or compound 1 were applied topically to the dorsal area. Tumor incidence and multiplicity were recorded weekly until the end of the experiment at week 28.
Female SKH-1 hairless mice were purchased from Charles River and were acclimated for 2 weeks before the study and had free access to food and water. All animals were maintained according to the guidelines approved by the University of Minnesota Institutional Animal Care and Use Committee (IACUC). The animals were housed in climate-controlled quarters with a 12-h light/dark cycle. The skin carcinogenesis experiments were conducted using 6-8 wk old mice with a mean body weight of 25 g. Skin carcinogenesis was induced by a solar simulated ultraviolet irradiation system. The SUV irradiation source (Q-Lab Corporation, Westlake, Ohio) emitted at wavelengths of 295 to 365 nm and the peak emission was 340 nm.
The two mouse models included an early-stage prevention model and a late-stage prevention model. These models were designed for detecting either the respective chemopreventive effect or the potential therapeutic value of compound 1 against SUV-induced skin damage and carcinogenesis. For the early-stage prevention study, SKH-1 mice were divided into 7 groups and an oil-in-water emulsion cream was applied topically as the vehicle with or without compound 1. The three control groups included 1) mice (n=3) not treated with vehicle or SUV; 2) mice (n=3) treated with vehicle but no SUV; and 3) mice (n=3) treated with 1 mg compound 1 in vehicle but not exposed to SUV. Experimental groups included 1) mice (n=12) treated with SUV only; 2) mice (n=12) treated with vehicle followed by SUV 1 h later; 3) mice (n=12 each group) treated with topical application of 0.1 or 1 mg of compound 1 in vehicle 1 h before SUV irradiation. The topical applications and SUV treatment were applied 3 times a week for a total of 15 weeks. At 15 weeks, SUV irradiation was discontinued and topical applications continued with tumor growth monitoring for an additional 13 weeks until week 28 at which time mice were euthanized and tissues harvested.
At week 1, mice were irradiated with SUV at a dose of 36 kJ/m^2 UVA and 1.8 kJ/m^2 UVB. At week 6, the dose of SUV reached 60 kJ/m^2 UVA and 2.9 kJ/m^2 UVB and this dose was maintained from week 6 to week 15. […]

SCC12 cells = assay: Crystal violet staining cell proliferation assay; type: cell-based, human; settings: dose-dependent, several days
Description: (§1) Cells were exposed to EGF (10 ng/ml) and treated with increasing concentrations of compound 1. Representative photographs are shown and data are presented as mean values±S.D. from triplicate experiments. […] Cells were treated with different concentrations of compound 1 for several days and cell proliferation was determined by a crystal violet staining assay.
(§2) Cell proliferation was determined by a crystal violet staining assay. Cells (3×10^4/well) were seeded into 24-well plates. After an overnight incubation, cells were treated with different concentrations of compound 1 and incubated for several days. Then, each well was washed 3 times with phosphate buffered saline (PBS) and stained with 0.2% (w/v) crystal violet in 2% (v/v) ethanol. After 10 min, cells were washed 3 times with distilled water, and the remaining dye was dissolved in 0.5% (w/v) sodium dodecyl sulfate in 50% (v/v) ethanol. Absorbance was measured at an optical density of 540 nm using the Thermo Multiskan plate-reader (Thermo Fisher Scientific).

A431 cells = assay: Crystal violet staining cell proliferation assay; type: cell-based, human; settings: dose-dependent, several days
Description: as §1, §2

With `O=C1Nc2ccc(C34CC5CC(CC(C5)C3)C4)cc2C1=NO` [compound 1, 5-(adamantan-1-yl)-3-(hydroxyimino)indolin-2-one] the SUV-induced tumor volume (SKH-1 hairless mice; early-stage model (FIG. 4B)) was “suppresses”, the SUV-induced epidermal thickness (SKH-1 hairless mice; early-stage model, 0.1 or 1 mg, H&E) was “decreased” and the “SUV-induced phosphorylation of ERK1/2, p38, and JNKs in mouse skin” value (SKH-1 hairless mice; early-stage model, Western blot) was “dramatically suppressed”. The “expression of PCNA” value (SKH-1 hairless mice; early-stage model, immunohistochemistry of skin) was “decreased”, the “average number of SUV-induced tumors” value (SKH-1 hairless mice; early-stage model, week 28 (FIG. 4C)) was “suppresses” and the SUV-induced papilloma formation (SKH-1 hairless mice; early-stage prevention group, topical 0.1 or 1 mg) was “total inhibition”. The body weight (SKH-1 hairless mice; topical application on dorsal skin, early-stage model, to week 28) was “no effect on body weight”, the cell proliferation (SCC12 cells) was “strongly decreased” and the cell proliferation (A431 cells) was “strongly decreased”.
